Data on 20 molecules can be found in patent publication US9315489B2, “Compounds and compositions for inhibiting the activity of ABL1, ABL2 and BCR-ABL1” (Novartis AG, priority 2012, dated 2016).

Read-outs that look alike come from different tables or passages of the source.

For series [1], the target named is T1, ABL1 (64-515) (Homo sapiens (Human), UniProt P00519). Put plainly: Radio ABL1 (64-515) assay (radiometric filter-binding). It counts as biochemical.
Experimental: For determination of ABL kinase activity, the radiometric filter-binding assay was used. […] Pre-incubation of enzyme with compounds (when stated) was performed by exposing the enzyme to compounds prior to addition of the substrate mixture (ATP and/or peptide substrate). […] Millipore, Volketswil, Switzerland) prepared according to the manufacturer's instructions. Filter-plates were washed 3× with 0.5% H3PO4, followed by addition of 30 μL scintillation cocktail (Microscint, Perkin Elmer) per well and then analysed in a TopCount NXT scintillation counter (Perkin Elmer). Results were expressed as IC50 values.
The next series deals with Ba/F3-BCR-ABL1-WT cells. Put plainly: Ba/F3-BCR-ABL1-WT cellular proliferation assay. It counts as cell-based, murine. The note with it: Mus musculus, read-out: Ba/F3-BCR-ABL1-WT IC50.
Series [2] is described as follows: Compound concentration in mouse brain and plasma. The class given is in vivo. Conditions: 5 minutes after a single intravenous injection of 1 mg/kg in mice; for Kp at 5 min / concentration at 5 min: mouse; for Kp at 5 min: brain/plasma, read-out: Mean Ratio (brain/plasma); for concentration at 5 min: plasma, read-out: Mean blood (drug concentration in plasma).
Experimental: Approximately two parts volume of MeOH/water (2/8 v/v) were added to the preweighted brain samples (˜250 mg) and subsequently homogenized using Covaris™ instrument. A 50 μL aliquot was subjected to protein precipitation and analysis as described below.
Fifty μL aliquots of blood or brain homogenate from animals treated with c-ABL inhibitors were first spiked with 5 μL of the internal standard (N-(4-methyl-3-((4-(6-methylpyridin-3-yl)pyrimidin-2-yl)amino)phenyl)-4-((4-methylpiperazin-1-yl)methyl)benzamide for positive ion mode 5-chloro-N-(4-(N-(cyclohexylcarbamoyl)sulfamoyl)-phenethyl)-2-methoxybenzamide for negative ion mode, respectively), subsequently deproteinated by adding MeCN (200 μL), centrifuged, the supernatant evaporated to dryness, and re-dissolved in 100 μL of a MeOH/water (1/1 v/v). Five μL were subjected to HPLC-MS/MS analysis. Chromatographic separation from interfering endogenous and exogenous contaminants was achieved on an Phenomenex™ Polar RP reversed-phase HPLC column (particle size: 2.5 μm; column dimensions: 2×50 mm) using a linear gradient of 100% water containing 1% formic acid (A), and MeOH supplemented with 1% formic acid (B), which was run over 6.0 min from 5% to 90% B, then kept at 100% B for 1.0 min, and a subsequent 1.5 min postrun with re-equilibration of the column. The column was kept at 50° C. The flow of 350 μL/min from the HPLC system (Flux Rheos Allegro LC pump and CTC Pal autosampler) was directly introduced into the ion source of an Finnigan™ Quantum Ultra MS-detector (triple stage quadrupole mass analyzer) and subjected to heated electrospray ionization (HESI).
c-ABL inhibitors were specifically detected using multiple reaction monitoring from their quasi-molecular parent ion ([M+H]^+ or [M−H]^−) to specific daughter ions as given in the table below. Quantification of blood and brain levels of c-ABL inhibitors compounds were based on a 6-level calibration curve made in triplicate.
The subject of series [3] is Ba/F3-BCR-ABL1-T315I cells. Briefly: Ba/F3-BCR-ABL1-T315I cellular proliferation assay. The class given is cell-based, murine. The note with it: Mus musculus, read-out: Ba/F3-BCR-ABL1-T315I IC50. From the text: The murine bone marrow-derived cell line Ba/F3 was used to generate the appropriate cell line models. Ba/F3 cells were obtained from the German Collection of Microorganisms and Cell Cultures (DSMZ, Braunschweig and DSMZ No. ACC 300). […] These cells are referred to as Ba/F3-WT.
To generate Ba/F3 cells that depend on BCR-ABL1 expression for growth and survival, Ba/F3 cells were engineered to express BCR-ABL1 using retroviral transduction with a MSCV based retroviral vector containing a p210 BCR-ABL1expression cassette. When grown in the absence of IL-3, the proliferation of the cells is dependent on the expression of BCR-ABL1. (Daley, G. Q. and Baltimore, D. Transformation of an interleukin 3-dependent hematopoietic cell line by the chronic myeloid leukemia-specific p210 BCR-ABL1 protein. PNAS 1988; 85:9312-9316). These cells are referred to as Ba/F3-BCR-ABL1-WT. A similar approach was used to generate Ba/F3 cells that depend on a BCR-ABL1 variant in which threonine 315 is replaced with isoleucine. These cells are referred to as Ba/F3-BCR-ABL1-T3151.
Ba/F3-WT cells were maintained in RPMI1640 media with L-glutamine, HEPES (Lonza), 10% FBS (Gibco) and 5 ng/ml IL-3 (Calbiochem). Ba/F3-BCR-ABL1-WT cells and Ba/F3-BCR-ABL1-T3151 cells were maintained in RPMI1640 media with L-glutamine, HEPES (Lonza) and 10% FBS (Gibco).
For each cell line, the cell density was adjusted to 50 000 cells/mL and 50 μL (2500 cells) added per well of a 384-well assay plate.
Test compounds were resuspended in DMSO at a concentration of 10 mM. A serial three-fold dilution of each compound with DMSO was performed in 384-well plates using the Janus Liquid Dispenser (PerkinElmer). Compound was delivered to the assay plates containing 2500 cells in a 50 μL volume via Acoustic delivery from an ATS-100 (EDC). For Ba/F3-BCR-ABL1-WT cell assays, […] of each compound dilution was transferred to the assay plate for final assay concentrations of 0.4 μM, 0.13 μM, 0.044 μM, 0.015 μM, 0.005 μM, 0.001 μM, 0.00033 μM, 0.00011 μM, 0.000037 μM, 0.000012 μM. For Ba/F3-WT and Ba/F3-BCR-ABL1-T315I cell assays, […] of each compound dilution was transferred to the assay plate for final assay concentrations of 10 μM, 3.33 μM, 1.11 μM, 0.37 μM, 0.12 μM, 0.041 μM, 0.014 μM, 0.0046 μM, 0.0015 μM, 0.00051 μM.
Cells were incubated at 37° C. in a humidified environment with 5% carbon dioxide for 48 hours. Britelite plus solution (Perkin Elmer) was prepared according to the manufacturer's instructions and 25 μL added to each well of the assay plate. Plates were incubated for 3-5 minutes and the luminescence detected on an EnVision Multimode plate reader (Perkin Elmer). The degree of luminescence correlates with the number of cells in each well. The effect of each inhibitor concentration can therefore be calculated and IC50 values generated.

The target in series [4] is T1, ABL1 (64-515). Briefly: Caliper ABL1 (64-515) assay (microfluidic mobility shift). The class given is biochemical.
Experimental: All assays were performed in 384-well microtiter plates. Each assay plate contained 8-point serial dilutions for 40 test compounds, as well as four 8-point serial dilutions of staurosporine as a reference compound, plus 16 high and 16 low controls. Liquid handling and incubation steps were done on a Thermo CatX workstation equipped with Innovadyne Nanodrop Express. Between pipetting steps, tips were cleaned in wash cycles using wash buffer.
The assay plates were prepared by addition of 50 nL per well of compound solution in 90% DMSO. […] Plates with terminated kinase reactions were transferred to the Caliper LC3000 workstations for reading. Phosphorylated and unphosphorylated peptides were separated using the Caliper microfluidic mobility shift technology. Briefly, samples from terminated kinase reactions were applied to the chip. Analytes are transported through the chip by constant buffer flow and the migration of the substrate peptide is monitored by the fluorescence signal of its label. Phosphorylated peptide (product) and unphosphorylated peptide (substrate) are separated in an electric field by their charge/mass ratio. Kinase activities were calculated from the amounts of formed phospho-peptide. IC50 values were determined from percent inhibition values at different compound concentrations by non-linear regression analysis.
Test compounds were dissolved in DMSO (10 mM) and transferred into 1.4 mL flat bottom or V-shaped Matrix tubes carrying a unique 2D matrix. The stock solutions were stored at +2° C. if not used immediately. For the test procedure the vials were defrosted and identified by a scanner whereby a working sheet was generated that guided the subsequent working steps.
Compound dilutions were made in 96-well plates. This format enabled the assay of maximally 40 individual test compounds at 8 concentrations (single points) including 4 reference compounds. The dilution protocol included the production of “pre-dilution plates”, “master plates” and “assay plates”.
Polypropylene 96-well plates were used as pre-dilution plates. […] All dilution steps were done on a HamiltonSTAR robot.
These plates were used directly for the assay which was performed in a total volume of 9.05 μL.

T1 sequence (P00519 64-515): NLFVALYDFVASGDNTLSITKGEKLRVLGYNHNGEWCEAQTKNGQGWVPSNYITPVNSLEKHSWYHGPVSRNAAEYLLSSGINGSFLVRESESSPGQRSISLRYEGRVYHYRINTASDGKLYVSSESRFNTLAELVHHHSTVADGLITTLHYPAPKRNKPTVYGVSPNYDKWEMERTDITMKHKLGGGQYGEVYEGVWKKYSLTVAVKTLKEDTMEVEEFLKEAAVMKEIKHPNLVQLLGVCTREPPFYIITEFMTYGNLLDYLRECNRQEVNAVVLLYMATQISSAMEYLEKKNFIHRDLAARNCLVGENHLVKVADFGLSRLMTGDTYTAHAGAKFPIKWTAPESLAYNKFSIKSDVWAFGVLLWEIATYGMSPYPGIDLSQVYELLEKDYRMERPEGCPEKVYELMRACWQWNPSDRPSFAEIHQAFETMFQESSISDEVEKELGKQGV
Experimental for Ba/F3-BCR-ABL1-WT cells: To generate Ba/F3 cells that depend on BCR-ABL1 expression for growth and survival, Ba/F3 cells were engineered to express BCR-ABL1 using retroviral transduction with a MSCV based retroviral vector containing a p210 BCR-ABL1expression cassette. […] These cells are referred to as Ba/F3-BCR-ABL1-WT.
Cells were incubated at 37° C. in a humidified environment with 5% carbon dioxide for 48 hours. Britelite plus solution (Perkin Elmer) was prepared according to the manufacturer's instructions and 25 μL added to each well of the assay plate. […] The degree of luminescence correlates with the number of cells in each well. The effect of each inhibitor concentration can therefore be calculated and IC50 values generated.

For the molecule `O=C(Nc1ccc(OC(F)(F)Cl)cc1)c1cccc(-c2cncnc2)c1` [Example 10, N-(4-(Chlorodifluoromethoxy)phenyl)-3-(pyrimidin-5-yl)benzamide], the IC50 at ABL1 (64-515) [1] came out at 9.5 nM. In the series with Ba/F3-BCR-ABL1-WT cells (48 hours), the IC50 came to 2.1 nM. Also, in series [2], the “Mean brain (drug concentration in brain)” value was found to be 4093 pmol/g, the Kp at 5 min was found to be 3.24 and the concentration at 5 min was found to be 1260 nM. Besides, in series [3] (48 hours), the IC50 worked out at 400 nM.

As to `O=C(Nc1ccc(SC(F)(F)F)cc1)c1cccc(-c2cncnc2)c1` [Example 11, 3-(Pyrimidin-5-yl)-N-(4-((trifluoromethyl)thio)phenyl)benzamide], the IC50 at ABL1 (64-515) [1] was < 3 nM. In addition, the IC50 with Ba/F3-BCR-ABL1-WT cells (48 hours) is 3.9 nM. Further, in series [2], the “Mean brain (drug concentration in brain)” value was determined as 7341 pmol/g, the Kp at 5 min was 4.99 and the concentration at 5 min is 1470 nM. In series [3] (48 hours), the IC50 was 563 nM.

Take `Cc1ccc(C(=O)Nc2ccc(OC(F)(F)F)cc2)cc1-c1cncnc1` [Example 14, 4-Methyl-3-(pyrimidin-5-yl)-N-(4-(trifluoromethoxy)phenyl)benzamide]: the IC50 stood at 8.5 nM at ABL1 (64-515) [1], 2.1 nM in the series on Ba/F3-BCR-ABL1-WT cells (48 hours), 3.5 nM at ABL1 (64-515) [4] and 306 nM in series [3] (48 hours).

Take `Cc1ccc(C(=O)Nc2ccc(OC(F)(F)F)cc2)cc1-n1ccnc1` [Example 16, 3-(1H-Imidazol-1-yl)-4-methyl-N-(4-(trifluoromethoxy)phenyl)benzamide]: the IC50 worked out at 4 nM on ABL1 (64-515) [1], 1.2 nM with Ba/F3-BCR-ABL1-WT cells (48 hours) and 617 nM in series [3] (48 hours).

On to `COc1ccc(C(=O)Nc2ccc(OC(F)(F)F)cc2)cc1-c1cncnc1` [Example 30, 4-methoxy-3-(pyrimidin-5-yl)-N-(4-(trifluoromethoxy)phenyl)benzamide], for which the IC50 with Ba/F3-BCR-ABL1-WT cells (48 h) worked out at 4.1 nM; in series [3] (48 h), 849 nM. Moreover, the “Mean brain (drug concentration in brain)” value in series [2] came out at 4471 pmol/g. Also, in series [2], the concentration at 5 min is 5390 nM.

Regarding `O=C(Nc1ccc(OC(F)(F)F)cc1)c1ccc(OCCN2CCOCC2)c(-c2cncnc2)c1` [Example 37, 4-(2-Morpholinoethoxy)-3-(pyrimidin-5-yl)-N-(4-(trifluoromethoxy)phenyl)benzamide], the figures for the IC50 (at ABL1 (64-515) [1]; in series [3] (48 hours)) were 3.6 nM and 521 nM, respectively.

Regarding `O=C(Nc1ccc(OC(F)(F)F)cc1)c1cnc(C2=CCOCC2)c(-c2cncnc2)c1` [Example 44, 6-(3,6-Dihydro-2h-pyran-4-yl)-5-(pyrimidin-5-yl)-N-(4-(trifluoromethoxy)phenyl)nicotinamide], the IC50 on ABL1 (64-515) [1] turned out to be 6 nM; in series [3] (48 hours) it was 214 nM.

Consider `O=C(Nc1ccc(OC(F)(F)F)cc1)c1cnc(C2CCOCC2)c(-c2cncnc2)c1` [Example 45, 5-(Pyrimidin-5-yl)-6-(tetrahydro-2h-pyran-4-yl)-N-(4-(trifluoromethoxy)phenyl)nicotinamide], for which the IC50 in series [3] (48 hours) is 460 nM.

In the case of `CC(C)(C#N)c1ncc(C(=O)Nc2ccc(OC(F)(F)F)cc2)cc1-c1cncnc1` [Example 47, 6-(2-Cyanopropan-2-yl)-5-(pyrimidin-5-yl)-N-(4-(trifluoromethoxy)phenyl)nicotinamide], in series [3] (48 hours), the IC50 worked out at 736 nM.

Consider `N#CC1(c2ncc(C(=O)Nc3ccc(OC(F)(F)F)cc3)cc2-c2cncnc2)CCC1` [Example 48, 6-(1-Cyanocyclobutyl)-5-(pyrimidin-5-yl)-N-(4-(trifluoromethoxy)phenyl)nicotinamide], for which the IC50 at ABL1 (64-515) [1] came out at 9 nM; in the series with Ba/F3-BCR-ABL1-WT cells (48 hours), 18 nM; on ABL1 (64-515) [4] it was 6.2 nM; in series [3] (48 hours) it was 363 nM.

As to `O=C(Nc1ccc(OC(F)(F)F)cc1)c1cnc(OCCO)c(-c2cncnc2)c1` [Example 52, 6-(2-hydroxyethoxy)-5-(pyrimidin-5-yl)-N-(4-(trifluoromethoxy)phenyl)nicotinamide], the IC50 on ABL1 (64-515) [1] was 23 nM; on ABL1 (64-515) [4], 23 nM; in series [3] (48 hours), 499 nM.

For `O=C(Nc1ccc(OC(F)(F)F)cc1)c1cnc(Cl)c(-c2cncnc2)c1` [Example 56, 6-Chloro-5-(pyrimidin-5-yl)-N-(4-(trifluoromethoxy)phenyl)nicotinamide], the IC50 came to 10 nM on ABL1 (64-515) [1], 9.9 nM at ABL1 (64-515) [4] and 488 nM in series [3] (48 hours).

Take `O=C(Nc1ccc(OC(F)(F)F)cc1)c1cnc(C(F)(F)F)c(-c2cncnc2)c1` [Example 57, 5-(Pyrimidin-5-yl)-N-(4-(trifluoromethoxy)phenyl)-6-(trifluoromethyl)nicotinamide]: the IC50 at ABL1 (64-515) [1] was 22 nM; in series [3] (48 hours), 703 nM.

Take `CCOc1ncc(C(=O)Nc2ccc(OC(F)(F)F)cc2)cc1-c1cncnc1` [Example 58, 6-Ethoxy-5-(pyrimidin-5-yl)-N-(4-(trifluoromethoxy)phenyl)nicotinamide]: the IC50 at ABL1 (64-515) [1] was 49 nM; on ABL1 (64-515) [4], 9.4 nM; in series [3] (48 hours) it was 754 nM.

Regarding `CC(C)(O)c1ncc(C(=O)Nc2ccc(OC(F)(F)F)cc2)cc1-c1cncnc1` [Example 66, 6-(2-Hydroxypropan-2-yl)-5-(pyrimidin-5-yl)-N-(4-(trifluoromethoxy)phenyl)nicotinamide], the IC50 in series [3] (48 hours) was 722 nM.

As for `O=C(Nc1ccc(OC(F)(F)Cl)cc1)c1cnc(OC2CCOCC2)c(-c2cncnc2)c1` [Example 67, N-(4-(Chlorodifluoromethoxy)phenyl)-5-(pyrimidin-5-yl)-6-((tetrahydro-2h-pyran-4-yl)oxy)nicotinamide], the results for the IC50 (at ABL1 (64-515) [1]; on ABL1 (64-515) [4]; in series [3] (48 hours)) were 1.2 nM, 3.8 nM and 456 nM, respectively.

For the molecule `COC(=O)c1ccc(C(=O)Nc2ccc(OC(F)(F)F)cc2)cc1-c1cncnc1` [Example 68, Methyl 2-(pyrimidin-5-yl)-4-((4-(trifluoromethoxy)phenyl)carbamoyl)benzoate], the figures for the IC50 (on ABL1 (64-515) [1]; on ABL1 (64-515) [4]; in series [3] (48 hours)) were < 3 nM, 1.6 nM and 177 nM, respectively.

On to `O=C(Nc1ccc(OC(F)(F)F)cc1)c1cncc(-c2cncc(F)c2)c1` [Example 75, 5′-Fluoro-N-(4-(trifluoromethoxy)phenyl)-[3,3′-bipyridine]-5-carboxamide], for which the IC50 in the series with Ba/F3-BCR-ABL1-WT cells (48 hours) was determined as 38 nM; on ABL1 (64-515) [4], 26 nM; in series [3] (48 hours) it was 655 nM.

For the molecule `O=C(Nc1ccc(OC(F)(F)Cl)cc1)c1cnc(Cl)c(-c2cncnc2)c1` [Example 76, 6-Chloro-N-(4-(chlorodifluoromethoxy)phenyl)-5-(pyrimidin-5-yl)nicotinamide], the IC50 is 2 nM in the series with Ba/F3-BCR-ABL1-WT cells (48 hours), 2.9 nM at ABL1 (64-515) [4] and 61 nM in series [3] (48 hours).

In the case of `O=C(Nc1ccc(OC(F)(F)Cl)cc1)c1cnc(Cl)c(-c2cncc(F)c2)c1` [Example 78, 2-Chloro-N-(4-(chlorodifluoromethoxy)phenyl)-5′-fluoro-[3,3′-bipyridine]-5-carboxamide], the IC50 in the series with Ba/F3-BCR-ABL1-WT cells (48 hours) is 7 nM; on ABL1 (64-515) [4] it was 3.9 nM; in series [3] (48 hours), 408 nM.
